This is an account of results in patent US20130296330A1, “MACROCYCLIC INTEGRASE INHIBITORS FOR USE IN THE TREATMENT OF FELINE IMMUNODEFICIENCY VIRUS” (ELANCO ANIMAL HEALTH IRELAND LIMITED, priority 2011, published 2013).

One series concerns FIV strain Thymo-113. In words: Inhibitory activity on FIV replication wild type, feline thymocytes (FIV p24 ELISA). Particulars: Feline immunodeficiency virus, Thymocyte, 144 h, primary feline thymocytes, FIV strain Thymo-113, 6 days, read-out: EC50 (concentration required to reduce antigen production by 50%). Format: cell-based. On the procedure: (§1) The anti-FIV activity of the compounds was tested in primary feline thymocytes isolated form specific pathogen free cats, and in Crandell feline kidney (CRFK) cells.
Feline thymocytes were maintained in complete Iscove's Modified Medium (Iscoves medium supplemented with GlutamaxI (Invitrogen/Gibco BRL), 10% inactivated fetal calf serum, antibiotics (100 IU/ml penicillin and 100 μg/ml streptomycin) 2-Mercapto-ethanol (50 μM) and 100 IU/ml human recombinant IL-2 (Chiron). Cells were seeded into a 96 well plate (5×10^4 cells per well) and pre-incubated with four-fold dilutions of the antiviral compound. Plates were incubated for 1 hour in a humidified incubator with a 5% CO2 atmosphere at 37° C. Subsequently, cells were inoculated with 100 TCID50 of FIV strain Thymo-113 in the presence of the different concentrations of compound. After 2 hours cells were washed twice in Iscove's medium and new medium containing the different concentrations of compound were added. After incubation for 6 days the supernatant was harvested and the amount of virus within the supernatant determined using a FIV p24 ELISA. The 50% effective concentration (EC50) was defined as the concentration of the compound required to reduce the antigen production by 50% compared to untreated controls.

Series [1] is described as follows: Cellular cytotoxic activity, mock-infected CRFK cells, MTT assay. The class given is cell-based, feline. Particulars: cat, read-out: CC50 (50% cytotoxic concentration). The protocol:
(§2) The cytotoxicity of the compounds was determined in parallel to the experiments under assay 1 on mock-infected feline thymocytes respectively CRFK cells cultured in the presence or absence of different concentrations of the compound.
After 6 days of incubation cell viability of the CRFK cells was measured by using a colorimetric MTT assay. A solution of 3-(4,5-dimethylthiazol-2-yl)-2,5-diphenyltetrazolium bromide (MTT) in PBS at a final concentration of 0.5 mg/ml was added to each well. After 2 hours incubation at 37 C and 5% CO2, the medium containing the MTT was removed and the cells were lysed by addition of 200 μl DMSO to each well. Following 10 minutes incubation at room temperature on a rocking plate, the optical density (OD) values at […] were determined. The compound concentration that decreased the viability of 50% of the cells was defined as the 50% cytotoxic concentration (CC50).

For the next series, the system named is FIV strain Utrecht-113. In words: Inhibitory activity on FIV replication wild type, CRFK cells (FIV p24 ELISA). Particulars: Feline immunodeficiency virus, 144 h, FIV strain Utrecht-113, 6 days, read-out: EC50 (concentration required to reduce antigen production by 50%). The class given is cell-based. The protocol:
as §1
Crandell Feline Kidney (CRFK) cells were maintained in DMEM (Dulbecco's Modified Eagle's Medium (Lonza) supplemented with, 10% inactivated fetal calf serum, antibiotics (100 IU/ml penicillin and 100 μg/ml streptomycin). Cells were seeded into a 96 well plate (5×10^4 cells per well) and pre-incubated with four-fold dilutions of the antiviral compound for 1 hours. The CrFK cells were washed with PBS DEAE 50 mg/l, inoculated with 100 TCID50 of FIV strain Utrecht-113 in the presence of the different concentrations of compound and subsequently incubated for 2 hours in a humidified incubator with a 5% CO2 atmosphere at 37° C. After 2 hours cells were washed twice in DMEM medium and new medium containing the different concentrations of compound were added. After incubation for 6 days the supernatant was harvested and the amount of virus within the supernatant determined using a FIV p24 ELISA. The 50% effective concentration (EC50) was defined as the concentration of the compound required to reduce the antigen production by 50% compared to untreated controls.
A general note: An ELISA detects its analyte on a solid surface through an enzyme-linked reagent.

Series [2] is described as follows: Cellular cytotoxic activity, mock-infected feline thymocytes, trypan blue exclusion staining. Format: cell-based. As to conditions: cat, read-out: CC50 (50% cytotoxic concentration). On the procedure: as §2
Cytotoxicity on feline thymocytes was determined by trypan blue exclusion staining whereby the CC50 for compound (6) was measured as >10 nM.

On to `CN1c2nc(c(O)c3ncccc23)C(=O)NCc2ccc(F)cc2C(=O)NCCCCCS1(=O)=O` [Compound 6], for which the EC50 in the series on FIV strain Thymo-113 and in the series with FIV strain Utrecht-113 was 20 nM each time. Further, in series [1], the CC50 at 6 days is over 10 nM. In series [2], the CC50 was over 10 nM.
